Experimental data as given in US4988691A (priority 1989, dated 1991).
pIC50: −log10 of the molar value. Counter-ions that a name gives are not always drawn. Like-named read-outs stand apart in the source and are kept apart here.

Experiments:
[1] = biological target: T1, contracturing effect of acetylcholine (Cavia porcellus, UniProt H0W1Z3); assay: anticholinergic activity in vitro (contracturing effect of acetylcholine on isolated guinea pig small intestine); parameters: species or system Guinea pigs
T1 construct: Segments measuring 5-6 cm were drawn form the end portion of the small intestine; from tissue; host or cells: guinea pig terminal small intestine (ileum)

[2] = biological target: T2, contracturing effect of histamine (Cavia porcellus, UniProt P31389); assay: antihistaminic activity in vitro (contracturing effect of histamine on isolated guinea pig small intestine); parameters: species or system Guinea pigs; settings: vs histamine; guinea pig small intestine; 37° C.; test compounds 10^-5 M; read-out: Antihistaminic activity (pA2) (converted)
T2 construct: Segments measuring 5-6 cm were drawn form the end portion of the small intestine; from tissue; host or cells: guinea pig terminal small intestine (ileum)

Ca^++ receptors = assay: displacement of 3H-nitrendipine from Ca++ receptors, rat brain membranes; type: binding; settings: 3H-nitrendipine 1nM
5-HT3 receptors = biological target: T3, 5-HT3 receptors (Oryctolagus cuniculus, UniProt A0A5F9C9J3); assay: anti-5-HT3 activity in vitro on the isolated vagus nerve of rabbit
T3 construct: from tissue; host or cells: isolated rabbit vagus nerve
T3 sequence (A0A5F9C9J3 1-494): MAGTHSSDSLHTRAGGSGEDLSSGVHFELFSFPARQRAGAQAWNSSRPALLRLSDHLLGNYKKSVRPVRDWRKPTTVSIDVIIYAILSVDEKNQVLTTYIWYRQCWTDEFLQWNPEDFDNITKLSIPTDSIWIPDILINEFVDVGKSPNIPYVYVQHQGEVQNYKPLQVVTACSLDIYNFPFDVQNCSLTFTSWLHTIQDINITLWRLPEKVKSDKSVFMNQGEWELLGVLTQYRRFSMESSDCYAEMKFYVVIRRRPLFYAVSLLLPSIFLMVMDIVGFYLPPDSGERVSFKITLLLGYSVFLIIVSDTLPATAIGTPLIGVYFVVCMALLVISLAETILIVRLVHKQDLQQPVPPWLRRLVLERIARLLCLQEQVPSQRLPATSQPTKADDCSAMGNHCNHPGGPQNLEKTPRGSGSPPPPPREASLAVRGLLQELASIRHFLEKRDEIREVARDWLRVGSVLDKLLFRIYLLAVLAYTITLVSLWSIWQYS
Method: (b) Evaluation of the anti-5-HT3 activity in vitro on the vagus nerve of rabbit. Male albino New Zeland rabbits weighing about 3 kg were sacrified by an air injection in the edge auriculaers vein. The two vagus nerves, drawn as soon as possible, were placed in a bath of Locke solution having the following composition: 154 mM NaCl; 5.5 mM KCl; 2.2 mM CaCl2; 5 mM glucose; 8 mM TRIS, the pH being adjusted at 7.6 by addition of HCl. Nerves were stripped of their epineurium and transferred into a device described by Kosterlitz H. W. et al., [J. Physiol., 183, IP-3P, (1966)] consisting of four compartments separated by means of 3 elastic membranes having a little hole through which the nerve passes. The glucose concentration perfusing a portion of the nerve was 315 mM. The overmaximal electric stimulation by a single shock at 10 seconds intervals elicited a potential visualized on a storage oscilloscope. In the potential the complexes due to the excitation of fibers A, B and C were distinguished. A serotonin solution applied to the nerve causes the dose-dependent fall of the potential for fibers C only. The non variation of the A-B complex when applying serotonin and the test compounds of formula I indicates on one hand the specific action of the substances for receptors relating to fibers C only (5-HT3 receptors) and on the other hand the absence of local-anaesthetic activity. Tests were performed at room temperature (24°-25° C.). The optimum maximum reduction of the potential of fibers C by serotonin resulted to be 44%. This reduction was adopted as maximum effect (100%). For each nerve a dose-response curve was constructed with cumulative doses of serotonin. After having washed serotonin and recovered the initial potential, the nerve was balanced with a fixed concentration of the compound of formula I for 60 minutes and successively the dose-response curve to serotonin was repeated, the compound of formula I being always present in the same concentration. After having applied a serotonin concentration sufficient to produce the highest effect, the preparation was washed and thereafter it was balanced again for 60 minutes with a solution of the same compound of formula I having a higher concentration. The procedure was then repeated. For each dose of the compound of formula I the test was repeated more than 5 times. The negative […] logarithm of the molar concentration of the compound of formula I which gives a 50% reduction of the effect of the agonist substance (pA2) was calculated. In table 7, the pA2 values of some compounds of formula I are reported.

[3] = tested on: receptors for benzodiazepins; assay: displacement of 3H-flunitrazepam from benzodiazepine receptors, rat cerebral cortex membranes; type: binding; settings: 3H-flunitrazepam 1nM
guinea pig back = assay: local anaesthetic activity in the test of the guinea pig back in vivo (intracutaneous infiltration); settings: guinea pig back, cutaneous anaesthesia, 0.25 ml
Method: (b) Evaluation of the local anaesthetic activity in the test of the guinea pig back in vivo in comparison with lidocaine.
The local anaesthetic activity was evaluated by the method of intracutaneous infiltration in the guinea pig back as described by Bulbring E. and Wajda I. [(J. Pharmacol. Exp. Ther. 85, 78, (1945)].
Female guinea pigs weighin 400-500 g were treated intracutaneously in 4 points of their back.
At 5 minutes intervals, it was determined the reactivity of the animal to pain in each area by considering the number of responses to 6 pain stimulations.
Compounds of formula I, compound R and lidocaine, dissolved at different concentration in physiological solution adjusting the pH at 7 by addition of NaHCO3 were injected under the skin at the constant volume of 0.25 ml.
The distribution of the treatments in the 4 areas of the back was carried out according to the scheme of the Latin square. Experiments were carried out in blind.
As an example, the ED50 values for compound No. 8, compound R and lidocaine determined at 5, 15 and 30 minutes after the administration are reported in table 4.

rat sciatic nerve = assay: local anaesthetic activity on sciatic nerve preparation in vitro; settings: read-out: ED50 (C.L. 95%)
5-HT1 receptors = assay: affinity for 5-HT1 receptors (3H serotonin binding), rat cortex membranes; settings: 3H-serotonin 5 nM; rat frontal cortex membranes
5-HT2 receptors = 5-HT2 receptors (Rattus norvegicus, UniProt P14842); assay: affinity for 5-HT2 receptors (3H-spiroperidol binding), rat cortex membranes; settings: 3H-spiroperidol […]; rat frontal cortex membranes
[4] = vs acetylcholine, guinea pig small intestine, 37° C., test compounds 10^-5 M, read-out: Antichlonergic activity (pA2) (converted)

T1 sequence (H0W1Z3 1-590): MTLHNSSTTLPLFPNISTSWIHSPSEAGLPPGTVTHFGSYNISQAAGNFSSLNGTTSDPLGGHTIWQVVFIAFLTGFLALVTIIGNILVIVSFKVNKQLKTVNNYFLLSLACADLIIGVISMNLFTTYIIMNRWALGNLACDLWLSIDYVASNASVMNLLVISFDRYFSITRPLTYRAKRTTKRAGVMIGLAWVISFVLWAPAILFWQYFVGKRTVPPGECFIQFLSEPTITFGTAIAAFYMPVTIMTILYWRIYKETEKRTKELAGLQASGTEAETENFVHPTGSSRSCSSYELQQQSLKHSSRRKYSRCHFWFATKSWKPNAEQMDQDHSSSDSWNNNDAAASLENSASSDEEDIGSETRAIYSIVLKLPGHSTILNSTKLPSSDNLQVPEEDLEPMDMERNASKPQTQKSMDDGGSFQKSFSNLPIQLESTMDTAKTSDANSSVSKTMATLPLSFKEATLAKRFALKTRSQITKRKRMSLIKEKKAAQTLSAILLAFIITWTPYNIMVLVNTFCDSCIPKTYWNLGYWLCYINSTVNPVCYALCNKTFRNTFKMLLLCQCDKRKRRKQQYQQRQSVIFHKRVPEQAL
T2 sequence (P31389 whole entry): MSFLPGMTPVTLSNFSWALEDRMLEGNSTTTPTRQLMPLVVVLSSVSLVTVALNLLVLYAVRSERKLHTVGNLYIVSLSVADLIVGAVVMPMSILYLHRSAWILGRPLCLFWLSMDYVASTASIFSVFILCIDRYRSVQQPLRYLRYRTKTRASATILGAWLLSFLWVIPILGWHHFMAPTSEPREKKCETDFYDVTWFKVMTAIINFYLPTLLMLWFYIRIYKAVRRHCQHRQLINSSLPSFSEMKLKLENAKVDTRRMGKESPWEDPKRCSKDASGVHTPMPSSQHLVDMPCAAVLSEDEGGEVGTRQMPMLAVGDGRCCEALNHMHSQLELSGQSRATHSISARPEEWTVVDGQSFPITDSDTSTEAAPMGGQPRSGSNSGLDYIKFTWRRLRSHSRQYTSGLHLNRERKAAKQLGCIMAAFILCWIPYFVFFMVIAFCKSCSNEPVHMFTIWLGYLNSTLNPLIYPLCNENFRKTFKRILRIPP
Sequence of 5-HT2 receptors (P14842 whole entry): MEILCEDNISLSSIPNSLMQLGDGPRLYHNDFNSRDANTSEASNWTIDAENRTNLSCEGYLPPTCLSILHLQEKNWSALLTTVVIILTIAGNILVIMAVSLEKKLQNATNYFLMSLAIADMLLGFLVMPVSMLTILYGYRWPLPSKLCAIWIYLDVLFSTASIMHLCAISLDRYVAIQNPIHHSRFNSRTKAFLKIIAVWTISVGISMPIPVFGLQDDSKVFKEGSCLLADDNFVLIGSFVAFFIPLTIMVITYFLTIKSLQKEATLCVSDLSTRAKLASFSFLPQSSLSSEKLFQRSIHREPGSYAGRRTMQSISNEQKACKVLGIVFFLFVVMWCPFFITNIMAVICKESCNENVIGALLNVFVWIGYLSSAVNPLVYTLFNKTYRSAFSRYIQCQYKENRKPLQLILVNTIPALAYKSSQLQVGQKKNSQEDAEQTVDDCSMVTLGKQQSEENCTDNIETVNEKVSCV

Question: For Cc1cc(C(=O)O[C@H]2C[C@H]3CC[C@@H](C2)N3C)on1 [Compound 5, 3-methylisoxazole-5-carboxylic acid 3-(endo-8-methyl-8-azabicyclo[3,2,1]octyl) ester hydrochloride], which Kb [1] is on record?
Answer: Its Kb is 31.6 µM.

Question: What about the Kb [2] of the same compound?
Answer: The Kb was 12.6 µM.

Question: What about the “Displacement activity at receptors of Ca++” value (Ca^++ receptors) of the same compound?
Answer: Its value is “inactive”.

Question: What about the Kb (5-HT3 receptors) of the same compound?
Answer: Its Kb is 0.00158 µM.

Question: What about the “Displacement activity at benzodiazepine receptors” value [3] of the same compound?
Answer: Its value is “inactive”.

Question: Which results are given for Cc1cc(C(=O)N[C@H]2C[C@H]3CC[C@@H](C2)N3C)no1 [Compound 16, N-[3-(endo-8-methyl-8-azabicyclo[3,2,1]octyl)]-5-methylisoxazole-3-carboxamide]?
Answer: Kb [1]: 126 µM; Kb [2]: 7.94 µM

Question: How did the “ED50 (C.L. 95%), 5 min.” value (guinea pig back; 5 min. after administration) turn out when CCN(CC)CC(=O)Nc1c(C)cccc1C [lidocaine] was run?
Answer: The value was 5.8 (4.9-6.8) mM.

Question: What about the “ED50 (C.L. 95%), 15 min.” value (guinea pig back; 15 min. after administration) of the same compound?
Answer: Its value is 7.6 (6.8-8.4) mM.

Question: And the “ED50 (C.L. 95%), 30 min.” value (guinea pig back; 30 min. after administration)?
Answer: Its value is 15.2 (13.8-16.6) mM.

Question: What about the pIC50 (rat sciatic nerve; rat, sciatic nerve, 8 min) of the same compound?
Answer: The pIC50 was 3.22.

Question: How did the Kb [2] turn out when CCN1CCCC(NC(=O)c2cc(C)on2)C1 (stereo not shown) [Compound 14, N-(1-ethyl-3-piperidinyl)-5-methylisoxazole-3-carboxamide] was run?
Answer: Its Kb is 316 µM.

Question: CN1C(=O)CN=C(c2ccccc2)c2cc(Cl)ccc21 [diazepam, reference compound] was tested. Which “Displacement activity at benzodiazepine receptors” value [3] did it give?
Answer: Its value is 4.

Question: With Cc1cc(C(=O)OC2CCN(C)CC2)no1 [Compound 9, 5-methylisoxazole-3-carboxylic acid 4-(1-methylpiperidinyl) ester hydrochloride] as the compound, how does the Kb [1, 4] read?
Answer: The Kb was 25.1 µM.

Question: What about the Kb [2] of the same compound?
Answer: The Kb was 10 µM.

Question: What about the pIC50 (rat sciatic nerve; rat sciatic nerve in vitro, 8 minutes contact) of the same compound?
Answer: Its pIC50 is < 1.82.

Question: Which Kb [2] does the source give for Cc1cc(C(=O)NC2CN3CCC2CC3)no1 (stereo not shown) [Compound 17, N-[3-(1-azabicyclo[2,2,2]octyl)]-5-methylisoxazole-3-carboxamide] here?
Answer: Its Kb is 50.1 µM.

Question: COc1cc(C(=O)O[C@H]2C[C@H]3CC[C@@H](C2)N3C)on1 [Compound 6, 3-methoxyisoxazole-5-carboxylic acid 3-(endo-8-methyl-8-azabicyclo[3,2,1]octyl) ester hydrochloride] was tested. Which Kb [1] did it give?
Answer: The Kb was 12.6 µM.

Question: What about the Kb [2] of the same compound?
Answer: The Kb was 6.31 µM.

Question: What about the Kb (5-HT3 receptors) of the same compound?
Answer: Its Kb is 0.00126 µM.

Question: And the pIC50 (rat sciatic nerve; rat, sciatic nerve, 8 min)?
Answer: The pIC50 was < 1.82.

Question: Which results are given for Cc1cc(C(=O)O[C@H]2C[C@H]3CC[C@@H](C2)[N+]3(C)C)no1 [Compound 18, endo-8,8-dimethyl-3-(5-methylisoxazole-3-carbonyloxy)-8-azoniabicyclo[3,2,1]octane bromide]?
Answer: Kb [1]: 6.31 µM; Affinity (IC50) to 5-HT1 receptors (5-HT1 receptors): inactive; Kb [2]: 15.8 µM; Affinity (IC50) to 5-HT2 receptors (5-HT2 receptors): inactive; pIC50 (rat sciatic nerve; rat, sciatic nerve, 8 min): < 1.82

Question: With O=C(c1ccc(F)cc1)C1CCN(CCn2c(=O)[nH]c3ccccc3c2=O)CC1 [ketanserine, reference compound] as the compound, how does the pIC50 (5-HT1 receptors) read?
Answer: The pIC50 was 5.00.

Question: How did the Kb [2] turn out when Cc1cc(C(=O)N[C@@H]2C[C@H]3CC[C@@H](C2)N3C)no1 [Compound 15, N-[3-(exo-8-methyl-8-azabicyclo[3,2,1]octyl)]-5-methylisoxazole-3-carboxamide] was run?
Answer: Its Kb is 50.1 µM.

Question: For Cc1cc(C(=O)OC2CCCN(C)C2)no1 (stereo not shown) [Compound 10, 5-methylisoxazole-3-carboxylic acid 3-(1-methylpiperidinyl) ester hydrochloride], which Kb [1, 4] is on record?
Answer: The Kb was 50.1 µM.

Question: What about the Kb [2] of the same compound?
Answer: Its Kb is 200 µM.

Question: What about the “Affinity (IC50) to 5-HT2 receptors” value (5-HT2 receptors) of the same compound?
Answer: Its value is “inactive”.

Question: How did the “optimum maximum reduction of the potential of fibers C” value (5-HT3 receptors; serotonin applied to rabbit vagus nerve, 24°-25° C.) turn out when NCCc1c[nH]c2ccc(O)cc12 [serotonin, reference compound] was run?
Answer: The value was 44%.

Question: Which results are given for CN1[C@@H]2CC[C@H]1C[C@@H](OC(=O)c1cc(OCc3ccccc3)no1)C2 [Compound 3, 3-benzyloxyisoxazole-5-carboxylic acid 3-(endo-8-methyl-8-azabicyclo[3,2,1]octyl) ester hydrochloride]?
Answer: Kb [1]: 2 µM; Kb [2]: 2.51 µM
